{"source": "patent US9463210B1", "about": "“Method for alleviating cravings and discomfort associated with smoking cessation8” (priority 2015, dated 2016)", "molecules": {"B1": {"name": "interleukin-10: interleukin-10 (protein, UniProt P22301 19-178, looked up)", "Interleukin-10": "SPGQGTQSENSCTHFPGNLPNMLRDLRDAFSRVKTFFQMKDQLDNLLLKESLLEDFKGYLGCQALSEMIQFYLEEVMPQAENQDPDIKAHVNSLGENLKTLRLRLRRCHRFLPCENKSKAVEQVKNAFNKLQEKGIYKAMSEFDIFINYIEAYMTMKIRN"}}, "key": {"[1]": {"biological_target": "acetylcholinesterase (AChE) (Homo sapiens, UniProt P22303)", "sequence (P22303 32-614, species assumed)": "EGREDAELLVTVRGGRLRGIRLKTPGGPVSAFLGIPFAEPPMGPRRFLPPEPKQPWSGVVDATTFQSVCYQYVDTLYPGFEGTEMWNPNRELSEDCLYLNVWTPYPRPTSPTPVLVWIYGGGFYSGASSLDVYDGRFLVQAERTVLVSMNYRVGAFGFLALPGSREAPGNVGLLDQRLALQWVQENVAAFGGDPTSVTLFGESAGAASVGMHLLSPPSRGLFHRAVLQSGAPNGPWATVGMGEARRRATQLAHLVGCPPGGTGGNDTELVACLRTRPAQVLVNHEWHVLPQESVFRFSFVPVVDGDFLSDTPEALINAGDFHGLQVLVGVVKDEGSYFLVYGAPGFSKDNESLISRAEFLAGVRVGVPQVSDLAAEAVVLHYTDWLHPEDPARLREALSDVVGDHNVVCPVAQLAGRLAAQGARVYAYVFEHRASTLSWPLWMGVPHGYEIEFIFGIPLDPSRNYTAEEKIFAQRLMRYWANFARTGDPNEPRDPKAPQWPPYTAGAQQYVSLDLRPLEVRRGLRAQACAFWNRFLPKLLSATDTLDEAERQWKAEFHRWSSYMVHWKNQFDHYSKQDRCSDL", "details": "colorimetric method; cited from earlier work"}, "[2]": {"system": "mouse microglial cell line MG6", "details": "cited from earlier work"}, "[3]": {"system": "Kuming mice", "details": "acute toxicity study; cited from earlier work"}, "[4]": {"details": "oral intakes up to 4.6 grams per day; cited from earlier work"}, "[5]": {"system": "Rat", "details": "cited from earlier work"}, "[6]": {"system": "mouse endothelial cells", "details": "cited from earlier work"}, "[7]": {"details": "cited from earlier work; for half-life: oral"}, "[8]": {"system": "isolated rat lungs", "details": "dose-dependent; cited from earlier work"}, "[9]": {"system": "diabetic and at-risk-of-diabetes patients", "details": "1.5 to 3 g daily for several years; cited from earlier work"}, "[10]": {"system": "mouse", "details": "cited from earlier work"}, "[11]": {"assay": "Human equivalent dose estimate of the forskolin LD50 (Reagan-Shaw)"}, "[12]": {"system": "Rat", "details": "in vivo; cited from earlier work"}, "[13]": {"system": "NF-κB pathway", "details": "cited from earlier work"}, "[14]": {"system": "NO production", "details": "cited from earlier work"}, "[15]": {"system": "mice ear edema", "details": "cited from earlier work"}, "[16]": {"details": "cited from earlier work"}, "[17]": {"system": "Dopamine beta-hydroxylase (DBH) mRNA in PC12 cells", "details": "cited from earlier work"}, "[18]": {"system": "tyrosine hydroxylase (TH) mRNA in PC12 cells", "details": "cited from earlier work"}}, "note": "Read-outs that look alike come from different tables or passages of the source.", "data": [{"molecule": "CC1=CCC2C(C1)C2(C)C", "note": "(single isomer, unassigned; (+)) [(+)-3-carene]", "values": [{"measurement": "Inhibition of AChE", "setting": "[1]", "result": "potent inhibitors"}]}, {"molecule": "CC1=CC[C@H]2C[C@@H]1C2(C)C", "note": "[(−)-alpha-pinene]", "values": [{"measurement": "Inhibition of AChE", "setting": "[1]", "result": "potent inhibitors"}]}, {"molecule": "CC1=CC[C@@H]2C[C@H]1C2(C)C", "note": "[(+)-alpha-pinene]", "values": [{"measurement": "Inhibition of AChE", "setting": "[1]", "result": "potent inhibitors"}]}, {"molecule": "CC(C)c1cc2c(c(O)c1O)[C@@]1(C(=O)O)CCCC(C)(C)[C@@H]1CC2", "note": "[carnosic acid]", "values": [{"measurement": "NO production", "setting": "[2]; associated with decrease in inducible NO synthase", "result": "inhibited"}, {"measurement": "cell survival", "setting": "[2]; at the concentrations used", "result": "Neither CA nor LPS affected cell survival"}, {"measurement": "LPS-induced activation of MG6 cells", "setting": "[2]; in vitro", "result": "inhibited"}, {"measurement": "oral lethal dose (LD50)", "setting": "[3]", "result": "7100 mg/kg of body weight"}]}, {"molecule": "phosphatidylcholine [PC]", "values": [{"measurement": "tolerability", "setting": "[4]", "result": "very well tolerated"}]}, {"molecule": "NC(=O)c1cccnc1", "note": "[niacinamide, nicotinamide]", "values": [{"measurement": "LD50", "setting": "[5]", "result": 3500, "unit": "mg/kg"}, {"measurement": "SEB-induced endothelial NO production", "setting": "[6]; IFN-primed endothelial cells", "result": "significantly reduced"}, {"measurement": "IFN-gamma induction of endothelial class II MHC surface antigen", "setting": "[6]", "result": "markedly reduced"}, {"measurement": "iNOS mRNA levels", "setting": "[6]", "result": "reduced"}, {"measurement": "half-life cautiously assumed for humans", "setting": "[7]; agreement of both studies", "result": 4, "unit": "h"}, {"measurement": "effect on blood pressure, pulse or body temperature", "setting": "[7]; human, oral doses of 1-6 g", "result": "no detectable effect"}, {"measurement": "half-life", "setting": "[7]; human, 1-g dose", "result": "~1.5", "unit": "h"}, {"measurement": "half-life", "setting": "[7]; human, 2 g", "result": "~4", "unit": "h"}, {"measurement": "half-life", "setting": "[7]; human, 4 and 6 g", "result": "7 to 9", "unit": "h"}, {"measurement": "PMA-induced pathophysiological and biochemical changes (acute lung injury)", "setting": "[8]", "result": "diminished"}, {"measurement": "effect on biochemical parameters including liver and kidney function tests", "setting": "[9]", "result": "no effect"}, {"measurement": "LD50", "setting": "[10]", "result": 2500, "unit": "mg/kg"}]}, {"molecule": "C=C[C@@]1(C)CC(=O)[C@]2(O)[C@@]3(C)[C@@H](O)CCC(C)(C)[C@@H]3[C@H](O)[C@H](OC(C)=O)[C@@]2(C)O1", "note": "[forskolin]", "values": [{"measurement": "estimated LD50 in a person", "setting": "[11]; 100 pound (45.4 Kg) person", "result": "18,773.51 mg"}, {"measurement": "LD50", "setting": "[11]; rat, oral, 2550×(6/37), Reagan-Shaw, read-out: HED of the rat LD50", "result": 413, "unit": "mg/kg"}, {"measurement": "oral LD50 (rat)", "setting": "[12]", "result": "2,550 mg/kg"}]}, {"molecule": "CC(C)=CCCC(C)=CC=O", "note": "[citral]", "values": [{"measurement": "activity on COX-2", "setting": "[13]", "result": "could not efficiently suppress"}, {"measurement": "expression of IKK, iNOS, and nuclear NF-κB", "setting": "[13]; dose-dependent", "result": "decreased"}, {"measurement": "NO production inhibitory activity, IC50", "setting": "[14]", "result": 13.18, "unit": "µg/mL"}, {"measurement": "inflammation reduction, ear edema", "setting": "[15]; 0.1 mg per ear", "result": 22, "unit": "%"}, {"measurement": "inflammation reduction, ear edema", "setting": "[15]; 0.3 mg per ear", "result": 83, "unit": "%"}]}, {"molecule": "CNCC(=O)O", "note": "[sarcosine, N-methylglycine]", "values": [{"measurement": "safety", "setting": "[16]; 2 and 4 gm/d for one week", "result": "appears to be safe"}, {"measurement": "time to peak concentration in serum", "setting": "[16]; human, 2 and 4 gm/d", "result": "two"}]}, {"molecule": "CN1CCCC1c1cccnc1", "note": "(centres unmarked) [Nicotine]", "values": [{"measurement": "increase of DBH mRNA levels", "setting": "[17]", "result": 3.1, "unit": "fold"}, {"measurement": "increase of TH mRNA levels", "setting": "[18]", "result": 3.3, "unit": "fold"}]}, {"molecule": "B1", "values": [{"measurement": "IFN-gamma induction of endothelial class II MHC surface antigen", "setting": "[6]", "result": "no effect"}, {"measurement": "SEB-induced endothelial NO production", "setting": "[6]", "result": "significantly reduced"}, {"measurement": "iNOS mRNA levels", "setting": "[6]", "result": "did not consistently reduce"}]}]}
